Assay results: PubChem BioAssay (NCI)
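Assay format: 96-well plates, 48-hour exposure. Here, GI50 denotes the concentration required for 50% inhibition of growth. TGI marks complete inhibition of growth.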

Columns and labels:
Assay in all cases: NCI anticancer screen, dose series, 48 h; in the data active means GI50 below about 0.43 µM; inactive means the rest
786-0 renal = test system: 786-0 renal
A549 NSCLC = test system: A549 NSCLC
ACHN renal = test system: ACHN renal
BT-549 breast = test system: BT-549 breast
CAKI-1 renal = test system: CAKI-1 renal
COLO 205 colon = test system: COLO 205 colon
DU-145 prostate = test system: DU-145 prostate
EKVX NSCLC = test system: EKVX NSCLC
HCC-2998 colon = test system: HCC-2998 colon
HCT-116 colon = test system: HCT-116 colon
HL-60(TB) leukemia = test system: HL-60(TB) leukemia
HOP-62 NSCLC = test system: HOP-62 NSCLC
HOP-92 NSCLC = test system: HOP-92 NSCLC
HS 578T breast = test system: HS 578T breast
HT29 colon = test system: HT29 colon
IGROV1 ovarian = test system: IGROV1 ovarian
K-562 leukemia = test system: K-562 leukemia
KM12 colon = test system: KM12 colon
LOX IMVI melanoma = test system: LOX IMVI melanoma
M14 melanoma = test system: M14 melanoma
MALME-3M melanoma = test system: MALME-3M melanoma
MCF7 breast = test system: MCF7 breast
MDA-MB-231 breast = test system: MDA-MB-231 breast
MDA-MB-435 = test system: MDA-MB-435
MDA-N = test system: MDA-N
MOLT-4 leukemia = test system: MOLT-4 leukemia
NCI-H226 lung = test system: NCI-H226 lung
NCI-H23 lung = test system: NCI-H23 lung
NCI-H460 lung = test system: NCI-H460 lung
NCI-H522 lung = test system: NCI-H522 lung
NCI/ADR-RES ovarian = test system: NCI/ADR-RES ovarian
OVCAR-3 ovarian = test system: OVCAR-3 ovarian
OVCAR-4 ovarian = test system: OVCAR-4 ovarian
OVCAR-5 ovarian = test system: OVCAR-5 ovarian
OVCAR-8 ovarian = test system: OVCAR-8 ovarian
PC-3 prostate = test system: PC-3 prostate
RPMI-8226 leukemia = test system: RPMI-8226 leukemia
RXF 393 renal = test system: RXF 393 renal
SF-268 CNS = test system: SF-268 CNS
SF-295 CNS = test system: SF-295 CNS
SF-539 CNS = test system: SF-539 CNS
SK-MEL-28 melanoma = test system: SK-MEL-28 melanoma
SK-MEL-5 melanoma = test system: SK-MEL-5 melanoma
SK-OV-3 ovarian = test system: SK-OV-3 ovarian
SN12C renal = test system: SN12C renal
SNB-75 CNS = test system: SNB-75 CNS
SR leukemia = test system: SR leukemia
SW-620 colon = test system: SW-620 colon
T-47D breast = test system: T-47D breast
TK-10 renal = test system: TK-10 renal
U251 CNS = test system: U251 CNS
UACC-62 melanoma = test system: UACC-62 melanoma
UO-31 renal = test system: UO-31 renal
CCRF-CEM leukemia = test system: CCRF-CEM leukemia
HCT-15 colon = test system: HCT-15 colon
SK-MEL-2 melanoma = test system: SK-MEL-2 melanoma
SNB-19 CNS = test system: SNB-19 CNS
UACC-257 melanoma = test system: UACC-257 melanoma

COc1cc(O)c2c(=O)c(OC)c(-c3ccc(OC)c(OC)c3)oc2c1.[Co]
> 100 µM: TGI (786-0 renal) | TGI (A549 NSCLC) | TGI (ACHN renal) | TGI (BT-549 breast) | TGI (CAKI-1 renal) | TGI (COLO 205 colon) | TGI (DU-145 prostate) | TGI (EKVX NSCLC) | TGI (HCC-2998 colon) | TGI (HCT-116 colon) | TGI (HL-60(TB) leukemia) | TGI (HOP-62 NSCLC) | TGI (HOP-92 NSCLC) | TGI (HS 578T breast) | TGI (HT29 colon) | TGI (IGROV1 ovarian) | TGI (K-562 leukemia) | TGI (KM12 colon) | TGI (LOX IMVI melanoma) | TGI (M14 melanoma) | TGI (MALME-3M melanoma) | TGI (MCF7 breast) | TGI (MDA-MB-231 breast) | TGI (MDA-MB-435) | TGI (MDA-N) | TGI (MOLT-4 leukemia) | TGI (NCI-H226 lung) | TGI (NCI-H23 lung) | TGI (NCI-H460 lung) | TGI (NCI/ADR-RES ovarian) | TGI (OVCAR-3 ovarian) | TGI (OVCAR-4 ovarian) | TGI (OVCAR-5 ovarian) | TGI (OVCAR-8 ovarian) | TGI (PC-3 prostate) | TGI (RPMI-8226 leukemia) | TGI (RXF 393 renal) | TGI (SF-268 CNS) | TGI (SF-295 CNS) | TGI (SF-539 CNS) | TGI (SK-MEL-28 melanoma) | TGI (SK-MEL-5 melanoma) | TGI (SK-OV-3 ovarian) | TGI (SN12C renal) | TGI (SNB-75 CNS) | TGI (SR leukemia) | TGI (SW-620 colon) | TGI (T-47D breast) | TGI (TK-10 renal) | TGI (U251 CNS) | TGI (UACC-62 melanoma) | TGI (UO-31 renal)
inactive: GI50 (ACHN renal) 56.9 µM | GI50 (DU-145 prostate) > 100 µM | GI50 (EKVX NSCLC) > 100 µM | GI50 (HCC-2998 colon) > 100 µM | GI50 (HCT-116 colon) 61.6 µM | GI50 (HOP-62 NSCLC) 34.5 µM | GI50 (HOP-92 NSCLC) 31.8 µM | GI50 (HT29 colon) > 100 µM | GI50 (IGROV1 ovarian) > 100 µM | GI50 (K-562 leukemia) 75.5 µM | GI50 (KM12 colon) > 100 µM | GI50 (LOX IMVI melanoma) > 100 µM | GI50 (M14 melanoma) > 100 µM | GI50 (MALME-3M melanoma) 51.4 µM | GI50 (MCF7 breast) > 100 µM | GI50 (MDA-MB-231 breast) 18.1 µM | GI50 (MOLT-4 leukemia) 9.92 µM | GI50 (NCI-H23 lung) > 100 µM | GI50 (NCI/ADR-RES ovarian) > 100 µM | GI50 (OVCAR-3 ovarian) > 100 µM | GI50 (OVCAR-4 ovarian) 13.1 µM | GI50 (OVCAR-5 ovarian) > 100 µM | GI50 (OVCAR-8 ovarian) > 100 µM | GI50 (PC-3 prostate) 66.7 µM | GI50 (SF-268 CNS) 38.4 µM | GI50 (SF-295 CNS) 16.2 µM | GI50 (SK-MEL-28 melanoma) > 100 µM | GI50 (SK-MEL-5 melanoma) 70.3 µM | GI50 (SR leukemia) 5.29 µM | GI50 (T-47D breast) 10.7 µM | GI50 (UACC-62 melanoma) 32.3 µM
35.1 µM: TGI (NCI-H522 lung)

CN=C(NN)NS(=O)(=O)c1cc(C)c(Cl)cc1S
74.7 µM: TGI (UO-31 renal)
> 100 µM: TGI (786-0 renal) | TGI (A549 NSCLC) | TGI (BT-549 breast) | TGI (CAKI-1 renal) | TGI (CCRF-CEM leukemia) | TGI (COLO 205 colon) | TGI (DU-145 prostate) | TGI (EKVX NSCLC) | TGI (HCC-2998 colon) | TGI (HCT-116 colon) | TGI (HCT-15 colon) | TGI (HL-60(TB) leukemia) | TGI (HOP-62 NSCLC) | TGI (HOP-92 NSCLC) | TGI (HT29 colon) | TGI (IGROV1 ovarian) | TGI (K-562 leukemia) | TGI (KM12 colon) | TGI (LOX IMVI melanoma) | TGI (M14 melanoma) | TGI (MALME-3M melanoma) | TGI (MCF7 breast) | TGI (MDA-MB-231 breast) | TGI (MDA-MB-435) | TGI (MDA-N) | TGI (NCI-H226 lung) | TGI (NCI/ADR-RES ovarian) | TGI (OVCAR-3 ovarian) | TGI (OVCAR-4 ovarian) | TGI (OVCAR-5 ovarian) | TGI (OVCAR-8 ovarian) | TGI (PC-3 prostate) | TGI (RPMI-8226 leukemia) | TGI (RXF 393 renal) | TGI (SF-268 CNS) | TGI (SF-539 CNS) | TGI (SK-MEL-2 melanoma) | TGI (SK-MEL-28 melanoma) | TGI (SK-MEL-5 melanoma) | TGI (SK-OV-3 ovarian) | TGI (SN12C renal) | TGI (SNB-19 CNS) | TGI (SNB-75 CNS) | TGI (SR leukemia) | TGI (SW-620 colon) | TGI (T-47D breast) | TGI (TK-10 renal) | TGI (U251 CNS) | TGI (UACC-257 melanoma) | TGI (UACC-62 melanoma)
75.3 µM: TGI (HS 578T breast)
97.7 µM: TGI (NCI-H522 lung)
